Among the test systems are A549 NSCLC; HCT-15 colon; K-562 leukemia; MALME-3M melanoma; NCI-H226 lung; NCI-H522 lung; NCI/ADR-RES ovarian; SK-MEL-28 melanoma; SK-OV-3 ovarian; U251 CNS; SF-539 CNS.
What all share (assay): NCI tumour cell line growth inhibition, 48 h

These results are taken from PubChem BioAssay (NCI).

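Exposure lasted 48 hours, with cells grown in 96-well plates and compounds tested at five concentrations. Abbreviation: GI50, concentration required for 50% inhibition of growth. At the TGI there is no net growth.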

As for `CC1=C(C)[C@@]2(C)O[C@@]2(C)O[C@@]2(C)O[C@@]12C`, the TGI in the experiment with A549 NSCLC, in the experiment on HCT-15 colon, in the experiment on K-562 leukemia, with MALME-3M melanoma, in the experiment with NCI-H226 lung and with NCI-H522 lung was more than 100 µM each time. Further, the TGI in the experiment on NCI/ADR-RES ovarian, in the experiment with SK-MEL-28 melanoma, with SK-OV-3 ovarian and in the experiment on U251 CNS was more than 100 µM each time.
On to `O=C([O-])CC(=O)[O-].O=C([O-])CC(=O)[O-].[K+].[Pd+2]`, for which the GI50 in the experiment on A549 NSCLC, in the experiment on HCT-15 colon, in the experiment with MALME-3M melanoma, with NCI-H226 lung, in the experiment with NCI-H522 lung and with SF-539 CNS was more than 100 µM each time. For the same compound, the GI50 with SK-MEL-28 melanoma and in the experiment with U251 CNS was more than 100 µM throughout. Also, the TGI in the experiment on A549 NSCLC, with HCT-15 colon, with MALME-3M melanoma, in the experiment with NCI-H226 lung, with NCI-H522 lung and in the experiment with SF-539 CNS was more than 100 µM in each case. The TGI with SK-MEL-28 melanoma and in the experiment with U251 CNS was more than 100 µM throughout.
With `O=C(Nc1ccc(C2=NCCN2)cc1)c1cncc(C(=O)Nc2ccc(C3=NCCN3)cc2)c1`, the TGI in the experiment on A549 NSCLC, in the experiment on HCT-15 colon, in the experiment on K-562 leukemia, in the experiment on MALME-3M melanoma, in the experiment with NCI-H226 lung and with NCI-H522 lung was more than 100 µM in each case. For the same compound, the TGI in the experiment on NCI/ADR-RES ovarian was more than 100 µM; in the experiment on SF-539 CNS, more than 100 µM; with SK-MEL-28 melanoma it was more than 31.6 µM; with SK-OV-3 ovarian, more than 100 µM; in the experiment on U251 CNS it was more than 100 µM.
Regarding `CCOC(=O)C(NC(C)=O)(Nc1ccc(F)cc1)C(F)(F)F` (stereo unspecified), the TGI with A549 NSCLC, in the experiment on HCT-15 colon, in the experiment with K-562 leukemia, with NCI-H522 lung, in the experiment with NCI/ADR-RES ovarian and in the experiment on SF-539 CNS was more than 100 µM each time. The TGI in the experiment with SK-MEL-28 melanoma, in the experiment on SK-OV-3 ovarian and with U251 CNS was more than 100 µM throughout.
